Source: patent US5504190A, “Equimolar multiple oligomer mixtures, especially oligopeptide mixtures” (priority 1994, dated 1996)
Read-outs that look alike come from different tables or passages of the source. Peptide text beside a SMILES is read from it.

Tests used:
[1] = test system: Herpes Simplex Virus Type 1 (HSV-1); experiment: HSV-1 plaque assay on Vero cell monolayers; type: cell-based; settings: Table 10
Method: The screenings utilized a plaque assay in which 24-well plates containing Vero (monkey kidney) cell monolayers were overlaid with 400 μg/ml of each peptide or mixture in M-199V (medium and newborn calf serum). The plates were incubated for two hours at 37° C.
Each well was thereafter aspirated and immediately overlaid with 400 μg of peptide or mixture in DMEM-O (Dulbeco's modified Eagle's medium and pooled human gamma globulin) and incubated for 48 hours. […] At 48 hours, the plate wells were aspirated, rinsed, fixed and stained. Plaque formation, if present, was tallied and recorded.
The PFU's per well of six controls were averaged and represent 100 percent plaque formation at approximately 50 PFU's per well. The average PFU's per screened peptide or mixture (duplicate wells) quantitatively represented percent viral inhibition of plaque formation or infection. For example, a count of 10 PFU's of a screened peptide compared to the control of 50 PFU's would represent 20 percent plaque formation and 80 percent plaque inhibition.

[2] = test system: Vero (monkey kidney) cell monolayers; type: cell-based
[3] = test system: Escherichia coli (ATCC 25922); experiment: antimicrobial assay, growth inhibition of E. coli (OD 620 nm); type: cell-based; settings: Tables 1 and 2
Method: (§1) Escherichia coli (ATCC 25922) was used as Gram-negative (-) and Staphylococcus aureus (ATCC 29213) as Gram-positive (+) bacteria. Bacteria were grown overnight (about 18 hours) at 37° C. in Mueller-Hinton (MH) broth. This culture was reinoculated and incubated at 37° C. to reach the exponential phase of bacteria growth; i.e., a final bacterial suspension containing about 10^5 to 5×10^5 colony-forming units (CFU)/ml. The concentration of cells was established by plating 100 μl of different dilutions of the culture solution (e.g., 10^-2, 10^-3 and 10^-4) onto solid agar plates. Following an overnight (about 18 hours) incubation at 37° C., the CFU thus formed were counted on each agar plate.
(§2) 96-Well tissue culture plates were utilized, with eight wells per plate containing only medium as control blanks, whereas eight other wells contained medium plus cells as a positive growth control. These controls were used to detect possible medium contamination and to provide a measure of uninhibited growth of the microorganisms.
(§3) For initial screening studies, oligopeptide sets were added to the bacterial suspension to reach a final concentration of 1 mg/ml.
(§4) The plates were incubated overnight (about 18 hours) at 37° C., and the optical density (OD) determined at 620 nm after different times of incubation.

[4] = test system: Staphylococcus aureus (ATCC 29213); experiment: microbe, parasite or virus in culture
Method: as §1, §2, §3, §4

human red blood cells = type: cell-based
Method: Assays were carried out in 96-well culture tissue plates. Four wells per plate contained 125 μl of a non-peptide positive control of the surfactant Triton X-100 (poly)oxyethanol (9) octyl phenyl ether; 1 percent in deionized water!, and four wells per plate contained 115 μl of a control blank of phosphate-buffered saline (PBS). The hemolytic peptide melittin was used as comparative control. The controls served to detect possible contamination and to calculate the percent hemolysis of each peptide.
Human red blood cells (RBC's) were washed with PBS and centrifuged to separate them from the serum. The cells are then resuspended in PBS to a final suspension of 0.5 percent RBC. This suspension (125 μl) was added to the peptide mixture and control solutions. The plates were incubated at 37° C. for one hour and centrifuged at 2800 rpm for five minutes. The release of hemoglobin resulting from the cell lysis was determined by measuring the OD at 414 nm of 100 μl of the supernatant.

[5] = test system: Candida albicans ATCC 10231; experiment: antifungal assay, growth inhibition of C. albicans (OD 620 nm); type: cell-based; settings: Table 9
Method: Antifungal studies were carried out Candida albicans ATCC 10231 as the target microbe. The yeast culture was spread onto YM agar plates and incubated at 30° C. for 48 hours. Three colonies of this culture (about 1 mm in diameter each) were then inoculated in 5 ml of 1 X PBS solution. The suspension was vortexed and diluted 10-fold in YM broth, for an approximate final concentration of 10^5 to 5×10^5 CFU (colony forming units)/ml.
Actual concentrations of yeast cultures were determined by plating 100 μl of different solutions of the culture solution (10^-3, 10^-4 and 10^-5) onto solid YM agar plates. After 48 hours of incubation at 30° C., CFU formed were counted from each plate.
The assays were carried out in 96-well tissue culture plates. Eight wells containing only medium of YM broth served as negative controls, whereas eight wells containing medium and yeast culture served as positive controls. These controls were used to detect possible medium contamination and to provide a measure of uninhibited growth of the yeast.
For screening studies, oligopeptide mixtures were added to the yeast suspension in duplicates to reach a final concentration of 1.5 mg/ml. […] The plates were incubated over a period of 48 hours at 30° C., and the optical density (OD) at 24 and 48 hours was determined at 620 nm.

[6] = target: monoclonal antibody (mAb) 125-10F3; experiment: competitive ELISA, inhibition of mAb 125-10F3 binding to plate-adsorbed polypeptide SEQ ID NO:1
From the text: Monoclonal antibody (mAb) 125-10F3 was used in these studies, which binds specifically to a 13-residue polypeptide […](SEQ ID NO:1) Appel et al., J. Immunol., 144:976-983 (1990)!. The antigenic determinant recognized by the mAb is Pro-Tyr-Pro-Asn-Leu-Ser (SEQ ID NO:2), determined previously using individual omission analogs of the polypeptide as is seen in FIG. 2.
The peptide library was screened utilizing a competitive ELISA system that measured the inhibition in solution of the binding of the mAb to polypeptide SEQ ID NO:1 adsorbed to an assay plate by each individual element of the synthetic combinatorial library. […] Screening data for an exemplary eighteen of the 400 sets are shown in FIG. 4, with arrows at the two best binding sequences.
The concentration of the inhibiting oligopeptide sets at which 50 percent of the mAb was inhibited in its binding to the polypeptide (IC-50) was determined.

mAb 19B10 = experiment: competitive ELISA, inhibition of mAb 19B10 binding to plate-adsorbed peptide SEQ ID NO:89; settings: as the positions were defined
From the text: The antigenic determinant recognized by mAb 19B10 has the sequence Asp-Val-Pro-Asp-Tyr-Ala (SEQ ID NO:88). […].
Oligopeptide sets were screened in the general manner discussed previously, except that rather than using 400 mixture sets whose first two positions were defined and whose last four were equimolar mixtures for the first screen, 324 such N-acetyl C-amide sets were used based on mixtures of eighteen amino acids. Tryptophan and cysteine were not included with these mixture.

[7] = 7-mer studies, Tables 5 and 6 and parent 6-mer
[8] = later study completing the Ac-Tyr-Pro series ("in this study"), read-out: IC-50

| Compound | concentration for 100 Percent Inhibition [1] | Toxic Concentration [2] | IC-50 ([4]; Tables 3 and 4) | MIC ([4]; Tables 3 and 4) | HD-50 (human red blood cells) | other results |
| --- | --- | --- | --- | --- | --- | --- |
| Ac-RRWWCM-NH2 [RRWWCM] | 1 µg/mL | 10 µg/mL | – | – | – | – |
| Ac-FRWLLR-NH2 [FRWLLR] | – | – | 13 µg/mL | 24 to 48 µg/mL | 171 µg/mL | IC-50 [3]: 4 µg/mL; MIC [3]: 5 to 10 µg/mL |
| Ac-FRWLLF-NH2 [FRWLLF] | – | – | 11 µg/mL | 9 to 18 µg/mL | 34 µg/mL | – |
| Ac-RRWWCW-NH2 [RRWWCW] | – | – | 4.1 µg/mL | 4.5 to 9.0 µg/mL | 11 µg/mL | – |
| Ac-RRWWRR-NH2 [RRWWRR] | 1 µg/mL | 25 µg/mL | – | – | – | IC-50 [5]: 27.6 µg/mL; MIC [5]: 30 to 42 µg/mL |
| Ac-IRRWWRF-NH2 [IRRWWRF] | – | – | – | – | 142 µg/mL | IC-50 [4, 7]: 4.7 µg/mL; MIC [4, 7]: 4 to 8 µg/mL |
| Ac-RRWWCG-NH2 [RRWWCG] | 1 µg/mL | 10 µg/mL | – | – | – | – |
| Ac-WRRWWRF-NH2 [WRRWWRF] | – | – | – | – | 158 µg/mL | IC-50 [4, 7]: 5.4 µg/mL; MIC [4, 7]: 4 to 8 µg/mL |
| Ac-RRWWCY-NH2 [RRWWCY] | – | – | 5.4 µg/mL | 4.7 to 9.5 µg/mL | 50 µg/mL | – |
| Ac-RRWWRFW-NH2 [RRWWRFW] | – | – | – | – | 59 µg/mL | IC-50 [4, 7]: 2.5 µg/mL; MIC [4, 7]: 4 to 8 µg/mL |
| Ac-PYPNLS-NH2 [Ac-Pro-Tyr-Pro-Asn-Leu-Ser-NH2] | – | – | – | – | – | IC50 ([6]; iterative screening and control study of Example 2, read-out: IC-50 (concentration at which 50 percent of the mAb was inhibited in its binding to the polypeptide)): 10 nM; IC50 [6, 8]: 40 nM |
| Ac-RRWWCK-NH2 [RRWWCK] | 5 µg/mL | 10 µg/mL | 5.5 µg/mL | 4.8 to 9.6 µg/mL | 249 µg/mL | – |
| Ac-RRWWCA-NH2 [RRWWCA] | 1 µg/mL | 25 µg/mL | 8.4 µg/mL | 9 to 18 µg/mL | – | – |
| Ac-RRWWRFF-NH2 [RRWWRFF] | – | – | – | – | 106 µg/mL | IC-50 [4, 7]: 4.7 µg/mL; MIC [4, 7]: 4 to 8 µg/mL |
| Ac-FRWLLK-NH2 [FRWLLK] | – | – | – | – | 356 µg/mL | IC-50 [3]: 5 µg/mL; MIC [3]: 5 to 10 µg/mL |
| Ac-RRWWCF-NH2 [RRWWCF] | 5 µg/mL | 10 µg/mL | – | – | – | – |
| Ac-YRRWWRF-NH2 [YRRWWRF] | – | – | – | – | 219 µg/mL | IC-50 [4, 7]: 4.5 µg/mL; MIC [4, 7]: 4 to 8 µg/mL |
| CC(=O)N[C@@H](CCCNC(=N)N)C(=O)N[C@@H](CCCNC(=N)N)C(=O)N[C@@H](Cc1c[nH]c2ccccc12)C(=O)N[C@@H](Cc1c[nH]c2ccccc12)C(=O)N[C@@H](CS)C(=O)N[C@@H](CS)C(N)=O [RRWWCC] (Ac-RRWWCC-NH2) | 1 µg/mL | 10 µg/mL | – | – | – | – |
| Ac-DVPDYA-NH2 [Ac-Asp-Val-Pro-Asp-Tyr-Ala-NH2] | – | – | – | – | – | IC50 (mAb 19B10): 30 nM |
| Ac-RRWWRW-NH2 [RRWWRW] | 1 µg/mL | 25 µg/mL | – | – | – | – |
| Ac-YPNLSN-NH2 [Ac-Tyr-Pro-Asn-Leu-Ser-Asn-NH2] | – | – | – | – | – | IC50 [6, 8]: 150 nM; IC-50 value difference between the mixture (positions 1-5 of SEQ ID NO:15, position 6 mixture) and the single peptide ([6]; mixture inhibited better): about a factor of four |
| Ac-RRWWCH-NH2 [RRWWCH] | – | – | 6.2 µg/mL | 5.5 to 11 µg/mL | 128 µg/mL | – |
